Entries after “also recorded” stand apart in the source; their conditions may differ.

One series concerns subcutaneous adipocytes. In words: LipocyteProfiler of isoproterenol-treated vs DMSO-treated subcutaneous adipocytes (AMSCs, day 14). Type of series: cell-based, human. Particulars: subcutaneous adipocytes/AMSCs at day 14, isoproterenol. As to the method:
For imaging, cells were seeded at 10K cells/well in 96-well plates (Cell Carrier, Perkin Elmer #6005550) and induced 4 days after seeding. For RNAseq, cells were seeded at 40K cells/well in 12-well dishes (Corning). […] Adipogenic differentiation was induced by changing culture medium to induction medium. […] Visceral-derived AMSCs were differentiated by further adding 2% FBS as well as 0.1 mM oleic and linoleic acid to the induction and differentiation media. For isoproterenol stimulation experiments, 1 μM isoproterenol was added to the differentiation media and cells treated overnight. Human primary AMSCs and PHH were plated in 96-well CellCarrier plates (Perkinelmer #6005550). AMSCs were differentiated for 14 days and high content imaging was performed at day 0, day 3, day 8 and day 14 of adipogenic differentiation. Primary human hepatocytes were stained after 48 h in culture, and 24h following treatment with oleic acid or metformin. […] Regions of cytoplasm were then determined by removing the Nuclei from the Cell segmentations. […] Second, every field was assessed visually and fields that were corrupted by experimental induced technical artifacts were removed. […]

The subject of a further series is visceral adipocytes. The series is described as follows: LipocyteProfiler of isoproterenol-treated vs DMSO-treated visceral adipocytes (AMSCs, day 14). Particulars: for BODIPY-related Granularity (lipid droplet sizes): isoproterenol vs DMSO, across the full granularity size spectra. In kind it is cell-based, human. As to the method:
For imaging, cells were seeded at 10K cells/well in 96-well plates (Cell Carrier, Perkin Elmer #6005550) and induced 4 days after seeding. For RNAseq, cells were seeded at 40K cells/well in 12-well dishes (Corning). […] Adipogenic differentiation was induced by changing culture medium to induction medium. […] Visceral-derived AMSCs were differentiated by further adding 2% FBS as well as 0.1 mM oleic and linoleic acid to the induction and differentiation media. For isoproterenol stimulation experiments, 1 μM isoproterenol was added to the differentiation media and cells treated overnight. Human primary AMSCs and PHH were plated in 96-well CellCarrier plates (Perkinelmer #6005550). AMSCs were differentiated for 14 days and high content imaging was performed at day 0, day 3, day 8 and day 14 of adipogenic differentiation. Primary human hepatocytes were stained after 48 h in culture, and 24h following treatment with oleic acid or metformin. On the respective day of the assay, cell culture media was removed and replaced by 0.5 μM Mitotracker staining solution (1 mM MitoTracker Deep Red stock (Invitrogen #M22426) diluted in culture media) to each well followed by 30 minutes incubation at 37° C.' protected from light. […] PFA was removed and cells were washed once with Hank's Balanced Salt Solution (1×), HBSS (Gibco #14025076). […] Finally, staining solution was removed and cells were washed three times with HBSS. Cells were imaged using a Opera Phenix High content screening system. […] Prior to processing, flat field illumination correction was performed using functions generated from the median intensity across each plate. Nuclei were identified using the DAPI stain and then expanded to identify whole cells using the Phalloidin/WGA and BODIPY stains. Regions of cytoplasm were then determined by removing the Nuclei from the Cell segmentations. Speckles of BODIPY staining were enhanced to assist in detection of small and large individual Lipid objects. For each object set measurements were collected representing size, shape, intensity, granularity, texture, colocalization and distance to neighbouring objects. After LipocyteProfiler (LP) feature extraction data was filtered by applying automated and manual quality control steps. […] Second, every field was assessed visually and fields that were corrupted by experimental induced technical artifacts were removed. Furthermore, blocklisted features (Way, Gregory (2019): Blocklist Features-Cell Profiler. figshare. […] After filtering data were normalised per plate using a robust scaling approach (Pedregosa et al. 2011) that subtracts the median from each variable and divides it by the interquartile range. Individual wells were aggregated for downstream analysis by cell depot and day of differentiation.

For series [1], the system named is primary human hepatocytes (PHH). In words: LipocyteProfiler of drug-treated primary human hepatocytes. Type of series: cell-based. Particulars: PHH, 24h oleic acid (0.3 mM). On the procedure: Primary human hepatocytes (PHH) were purchased from BioIVT. Donor lot YNZ was used in this study. PHH were thawed and immediately resuspended in CP media (BioIVT) supplemented with torpedo antibiotic (BioIVT). Cell count and viability were assessed by trypan blue exclusion test prior to plating. […] Four hours after plating, media was replaced with fresh CP media. After 24 h, media was replaced with fresh CP media or CP media containing oleic acid (0.3 mM) or metformin (5 mM). Hepatocytes were incubated for an additional 24 h prior to processing. Human primary AMSCs and PHH were plated in 96-well CellCarrier plates (Perkinelmer #6005550). […] Primary human hepatocytes were stained after 48 h in culture, and 24h following treatment with oleic acid or metformin. On the respective day of the assay, cell culture media was removed and replaced by 0.5 μM Mitotracker staining solution (1 mM MitoTracker Deep Red stock (Invitrogen #M22426) diluted in culture media) to each well followed by 30 minutes incubation at 37° C.' protected from light. […] PFA was removed and cells were washed once with Hank's Balanced Salt Solution (1×), HBSS (Gibco #14025076). […] Finally, staining solution was removed and cells were washed three times with HBSS. Cells were imaged using a Opera Phenix High content screening system. […] Prior to processing, flat field illumination correction was performed using functions generated from the median intensity across each plate. Nuclei were identified using the DAPI stain and then expanded to identify whole cells using the Phalloidin/WGA and BODIPY stains. Regions of cytoplasm were then determined by removing the Nuclei from the Cell segmentations. Speckles of BODIPY staining were enhanced to assist in detection of small and large individual Lipid objects. For each object set measurements were collected representing size, shape, intensity, granularity, texture, colocalization and distance to neighbouring objects. After LipocyteProfiler (LP) feature extraction data was filtered by applying automated and manual quality control steps. […] Second, every field was assessed visually and fields that were corrupted by experimental induced technical artifacts were removed. Furthermore, blocklisted features (Way, Gregory (2019): Blocklist Features-Cell Profiler. figshare. […] After filtering data were normalised per plate using a robust scaling approach (Pedregosa et al. 2011) that subtracts the median from each variable and divides it by the interquartile range. Individual wells were aggregated for downstream analysis by cell depot and day of differentiation.

The conditions of series [2]: cited from earlier work.
Where [3] appears, read: 1 year follow up clinical trial.

On to `CC(C)NCC(O)c1ccc(O)c(O)c1` (centres unmarked) [isoproterenol], for which, in the series on subcutaneous adipocytes, the “effect on morphological profile” value is “no effect”. Moreover, the “Mitochondrial Intensity” value with visceral adipocytes (24 hour isoproterenol (1 μM) vs DMSO-treated controls, day 14, p=0.0413) is “increases”. For the same molecule, the “mitochondrial Texture_Entropy” value in the series on visceral adipocytes (24 hour isoproterenol vs DMSO-treated controls, p=0.0092) is reported as “differences; also recorded: increases”. In addition, the “BODIPY Texture Entropy” value in the series on visceral adipocytes (24 hour isoproterenol vs DMSO-treated controls, p=0.032) was “decrease”. In the series on visceral adipocytes (24 hour isoproterenol vs DMSO-treated controls, p=0.041), the “BODIPY MedianIntensity” value is recorded as “decrease”. Moreover, the “BODIPY-related Granularity (lipid droplet sizes)” value was “decreased” in the series on visceral adipocytes and “reduces” in the series with visceral adipocytes (listed as Isoproterenol).

Consider `CCCCCCCC/C=C\CCCCCCCC(=O)O` [oleic acid], for which the “BODIPY Texture_AngularSecondMoment” value in series [1] (p 7.21e-07) is listed as “differences”. In addition, the “lipid droplet number (LargeBODIPYObjects_Count)” value in series [1] (p=2.3e-11) is recorded as “increased”. In addition, the “overall lipid content (BODIPY MeanIntensity)” value in series [1] (p=1.21e-09) is reported as “increased”. The “BODIPY Texture Entropy” value in series [1] (p=2.56e-09) is “differences”.

Regarding `CC1(C)CCC(CN2CCN(c3ccc(C(=O)NS(=O)(=O)c4ccc(NCC5CCOCC5)c([N+](=O)[O-])c4)c(Oc4cnc5[nH]ccc5c4)c3)CC2)=C(c2ccc(Cl)cc2)C1` [venetoclax], in series [2] (setting [3]), the “hyperglycemia, share of patients” value is reported as 16% and the “severe hyperglycemia, share of patients” value was 5%. Besides, the “loss of body weight, share of cases” value in series [2] (clinical trial) is on record as 11-13%.

Values taken from patent publication US20240398989A1, “METHODS AND COMPOSITIONS FOR DIAGNOSIS AND TREATMENT OF METABOLIC DISORDERS” (The Broad Institute, Inc., priority 2021, published 2024).
